# Source: patent US11370785B2, “Multicyclic compounds as farnesoid X receptor modulators” (BRISTOL-MYERS SQUIBB COMPANY, priority 2017, dated 2022)
# Target: T1, human FXR (Homo sapiens, UniProt Q96RI1)
# T1 construct: expressed in transfected cells; host or cells: HEK293 cells stably carrying a 5xGal4-response-element firefly luciferase reporter, transiently transfected with the pcDNA3.1-Gal4-FXR plasmid
# T1 sequence (Q96RI1 262-486 limits assumed): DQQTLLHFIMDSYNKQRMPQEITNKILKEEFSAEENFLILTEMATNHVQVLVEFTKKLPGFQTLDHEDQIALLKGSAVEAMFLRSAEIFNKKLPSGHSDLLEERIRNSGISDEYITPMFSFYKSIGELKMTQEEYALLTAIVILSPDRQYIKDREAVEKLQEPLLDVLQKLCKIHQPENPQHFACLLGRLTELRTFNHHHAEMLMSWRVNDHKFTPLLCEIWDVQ
# Assay: transient human FXR/Gal4-luciferase reporter assay
# Assay type: cell-based
# Details: Gal4-hFXR reporter in HEK293 cells; read-out: HLE GAL-FXR EC50
# Procedure: The exemplified compounds of the present invention were tested in the transient human FXR/Gal4-luciferase reporter assay, and assay results were reported in Table 1 together with other analytical data.
# A Gal4-hFXR fusion construct reporter system was used as the primary assay to characterize compound activity. A construct including 5 copies of the Gal4 promoter response element upstream of a firefly luciferase reporter cDNA was stably expressed in HEK293 cells. This reporter cell line was maintained in Dulbecco's Modified Eagle's medium (DMEM; Gibco) supplemented with 1% penicillin-streptomycin (P/S) solution, 500 μg/mL Zeocin and 10% charcoal/dextran-treated fetal bovine serum (cs-FBS) at 37° C. in a humidified 5% CO2 atmosphere. Another plasmid was constructed in which the human cytomegalovirus promoter in the pcDNA3.1 vector directs the expression of the cDNA encoding a fusion protein comprised of the DNA binding domain from the Gal4 transcription factor fused to the ligand binding domain from human FXR.
# The day prior to transfection, the reporter cells in culture are detached from the plate with trypsin and plated into a T75 flask at a sufficient density to achieve approximately 90% confluence the next morning. The transfection reagents are prepared by separately diluting 25 μg of the pcDNA3.1-Gal4-FXR plasmid into 1.87 mL of Opti-MEM (Thermo-Fisher), and 40 μL of Lipofectamine 2000 (Thermo-Fisher) into 1.87 mL of Opti-MEM, and then adding the diluted DNA solution into the diluted Lipofectamine 2000 solution and incubating at room temperature for 15-20 minutes. The mixture is further diluted with 10 mL of a solution comprised of DMEM, 10% cs-FBS, and 1% P/S immediately prior to transferring to the cells. The maintenance culture media is aspirated from the cells and the final transfection mixture is added before the cells are incubated overnight at 37° C. in a humidified 5% CO2 atmosphere. This protocol can be scaled up, and the transiently transfected cells can be cryopreserved in an assay-ready format.
# For compound testing, 100 nL of the compounds (serial dilutions in DMSO) are dispensed with an Echo acoustic dispenser (Labcyte) into the wells of a Corning/Costar clear bottom 384-well white plate. The transfected cells are harvested, counted, and diluted such that 10-25,000 cells in 25 μL are plated into each well of the 384-well compound assay plate. The compound-treated cells are incubated overnight at 37° C. in a humidified 5% CO2 atmosphere. The next morning 25 μL of Steady-Glo (Promega) are added to each well of the plate, the mixture is incubated for 15 min. with shaking, and luminescence is measured on an Envision (Perkin Elmer) plate reader. Background counts from cells treated with DMSO alone are subtracted from all raw counts, and the corrected values are converted to a percentage of the control response attained with 8 μM GW-4064.
row,EC50 [nM],Structure (SMILES)
1,41,"O=C(O)c1cc(F)c2nc(N3CCC4(CC3)CC(=Cc3c(-c5c(Cl)cccc5Cl)noc3C3CC3)C4)sc2c1 [Example 1, 2-(2-((5-Cyclopropyl-3-(2,6-dichlorophenyl)isoxazol-4-yl)methylene)-7-azaspiro[3.5]nonan-7-yl)-4-fluorobenzo[d]thiazole-6-carboxylic acid]"
2,60,"O=C(O)c1cc(F)c2nc(N3CCC4(CC3)CC(Nc3c(-c5c(Cl)cccc5Cl)noc3C3CC3)C4)sc2c1 [Example 5, 2-(2-((5-Cyclopropyl-3-(2,6-dichlorophenyl)isoxazol-4-yl)amino)-7-azaspiro[3.5]nonan-7-yl)-4-fluorobenzo[d]thiazole-6-carboxylic acid]"
3,85,"O=C(O)c1cc(F)c2nc(N3CCC4(CC3)CC(Cc3c(-c5ccccc5C(F)(F)F)noc3C3CC3)C4)sc2c1 [Example 3, 2-(2-((5-Cyclopropyl-3-(2-(trifluoromethyl)phenyl)isoxazol-4-yl)methyl)-7-azaspiro[3.5]nonan-7-yl)-4-fluorobenzo[d]thiazole-6-carboxylic acid]"
4,422,"O=C(O)c1cc(F)c2nc(N3CCC4(CC3)CC(=Cc3c(-c5c(Cl)cccc5Cl)cnn3C3CC3)C4)sc2c1 [Example 8, 2-(2-((1-Cyclopropyl-4-(2,6-dichlorophenyl)-1H-pyrazol-5-yl)methylene)-7-azaspiro[3.5]nonan-7-yl)-4-fluorobenzo[d]thiazole-6-carboxylic acid]"

# Same assay, conditions: Gal4-hFXR reporter in HEK293 cells; relative to 8 μM GW-4064; read-out: FXR EC50
row,EC50 [nM],Structure (SMILES)
1,840,CC(=O)Nc1ncc(S(=O)(=O)N2CCC3(CC2)CC(Cc2c(-c4c(Cl)cccc4Cl)noc2C2CC2)C3)s1 [Example 176]
2,1200,N#Cc1cnc(N2CCC3(CC2)CC(Cc2c(-c4c(Cl)cccc4Cl)noc2C2CC2)C3)s1 [Example 170]
3,14,O=C(O)c1cc(OC2CCC2)c2cc(N3CCC4(CC3)CC(=Cc3c(-c5c(Cl)cncc5Cl)noc3C3CC3)C4)ccc2n1 [Example 124]
4,450,O=C(O)c1cc(OCCO)c2cc(N3CCC4(CC3)CC(=Cc3c(-c5ccccc5C(F)(F)F)noc3C3CC3)C4)ccc2n1 [Example 92]
5,650,O=C(O)c1cc(F)c2nc(N3CCC4(CC3)CC(=Cc3c(-c5ccccc5C(F)(F)F)noc3C(F)(F)F)C4)sc2c1 [Example 169]
6,16,O=C(O)c1cc(OC2CCCC2)c2cc(N3CCC4(CC3)CC(Cc3c(-c5ccccc5OC(F)(F)F)noc3C3CC3)C4)ccc2n1 [Example 122]
7,765,O=C(O)c1ccc(CCN2CCC3(CC2)CC(=Cc2c(-c4c(Cl)cccc4Cl)noc2C2CC2)C3)cc1 [Example 44]
8,2,CC(C)Oc1cc(C(=O)O)nc2ccc(N3CCC4(CC3)CC(=Cc3c(-c5ccccc5OC(F)(F)F)noc3C3CC3)C4)cc12 [Example 80]
9,47,O=C(O)c1cc(OC2COC2)c2cc(N3CCC4(CC3)CC(=Cc3c(-c5c(Cl)cncc5Cl)noc3C3CC3)C4)ccc2n1 [Example 139]
10,505,COc1cc(N2CCC3(CC2)CC(Cc2c(-c4c(Cl)cccc4Cl)noc2C2CC2)C3)ccc1OCC(=O)O [Example 93]
11,4,O=C(O)c1cc(OC2CCC2)c2cc(N3CCC4(CC3)CC(=Cc3c(-c5ccccc5C(F)(F)F)noc3C3CC3)C4)ccc2n1 [Example 108]
12,77,O=C(O)c1cc(F)c2nc(N3CCC4(CC3)CC(Nc3c(-c5ccccc5OC(F)(F)F)noc3C3CC3)C4)sc2c1 [Example 18]
13,634,COCCOc1cc(C(=O)O)nc2ccc(N3CCC4(CC3)CC(=Cc3c(-c5ccccc5OC(F)(F)F)noc3C3CC3)C4)cc12 [Example 110]
14,10,Cc1cccc(Cl)c1-c1noc(C2CC2)c1C=C1CC2(CCN(c3ccc4c(C(=O)O)cn(C)c4c3)CC2)C1 [Example 59]
15,23,COc1cc(C(=O)O)nc2ccc(N3CCC4(CC3)CC(=Cc3c(-c5ccccc5C(F)(F)F)noc3C(F)(F)F)C4)cc12 [Example 168]
16,1410,O=C(O)c1cc2ccc(N3CCC4(CC3)CC(=Cc3c(-c5ccccc5C(F)(F)F)noc3C3CC3)C4)cc2cn1 [Example 37]
17,2360,"N#Cc1ccc(N2CCC3(CC2)CC(=Cc2c(-c4c(Cl)cccc4Cl)noc2C2CC2)C3)cc1 [Example 48, 4-(2-((5-cyclopropyl-3-(2,6-dichlorophenyl)isoxazol-4-yl)methylene)-7-azaspiro[3.5]nonan-7-yl)benzonitrile]"
18,1990,Cc1nc(C(=O)O)c2ccc(N3CCC4(CC3)CC(Cc3c(-c5ccccc5C(F)(F)F)noc3C3CC3)C4)cn12 [Example 75]

row,EC50 [nM],Structure (SMILES)
1,1550,COc1cc(C(=O)O)nc2ccc(N3CCC4(CC3)CC(=Cc3c(C(C5CC5)C5CC5)noc3C3CC3)C4)cc12 [Example 107]
2,14,COc1cc(C(=O)O)nc2ccc(N3CCC4(CC3)CC(=Cc3c(-c5c(Cl)cncc5Cl)noc3C3CC3)C4)cc12 [Example 76]
3,21,COc1cc(C(=O)O)nc2ccc(N3CCC4(CC3)CC(=Cc3c(-c5ccccc5C(F)(F)F)noc3C3CC3)C4)cc12 [Example 72]
4,19,COCCn1cc(C(=O)O)c2ccc(N3CCC4(CC3)CC(=Cc3c(-c5c(Cl)cccc5Cl)noc3C3CC3)C4)cc21 [Example 57]
5,450,NC(=O)c1cc(OC2CCC2)c2cc(N3CCC4(CC3)CC(Cc3c(-c5ccccc5C(F)(F)F)noc3C3CC3)C4)ccc2n1 [Example 171]
6,4,Cn1cc(C(=O)O)c2ccc(N3CCC4(CC3)CC(=Cc3c(-c5ccccc5C(F)(F)F)noc3C3CC3)C4)cc21 [Example 39]
7,10,Cc1cccc(Cl)c1-c1noc(C2CC2)c1C=C1CC2(CCN(c3ccc4nc(C(=O)O)cc(C(F)(F)F)c4c3)CC2)C1 [Example 58]
8,1930,O=C(c1cc(OC2CCC2)c2cc(N3CCC4(CC3)CC(Cc3c(-c5ccccc5C(F)(F)F)noc3C3CC3)C4)ccc2n1)N1CC(F)(F)C1 [Example 186]
9,26,O=C(O)c1cc(C(F)(F)F)c2cc(N3CCC4(CC3)CC(=Cc3c(-c5c(Cl)cncc5Cl)noc3C(F)(F)F)C4)ccc2n1 [Example 153]
10,37,C=Cc1cncc(Cl)c1-c1noc(C2CC2)c1C=C1CC2(CCN(c3ccc4nc(C(=O)O)cc(C(F)(F)F)c4c3)CC2)C1 [Example 160]
11,19,CC(C)Oc1cc(C(=O)O)nc2ccc(N3CCC4(CC3)CC(Cc3c(-c5ccccc5C(F)(F)F)noc3C3CC3)C4)cc12 [Example 84]
12,6,O=C(O)c1cc(OC2CCCC2)c2cc(N3CCC4(CC3)CC(Cc3c(-c5ccccc5C(F)(F)F)noc3C3CC3)C4)ccc2n1 [Example 123]
13,21,Cn1cc(C(=O)O)c2ccc(N3CCC4(CC3)CC(=Cc3c(-c5ccccc5OC(F)(F)F)noc3C3CC3)C4)cc21 [Example 27]
14,481,CC(C)(C)OC(=O)N1c2ccc(N3CCC4(CC3)CC(=Cc3c(-c5ccccc5OC(F)(F)F)noc3C3CC3)C4)cc2CCC1C(=O)O (stereo not drawn) [Example 111]
15,1820,O=C(O)c1ccc(N2CCC3(CC2)CC(Nc2c(-c4c(Cl)cccc4Cl)noc2C2CC2)C3)nn1 [Example 15]
16,9,Cn1cc(C(=O)O)c2ccc(N3CCC4(CC3)CC(=Cc3c(-c5c(Cl)cccc5Cl)noc3C3CC3)C4)cc21 [Example 24]
17,73,COCCOc1cc(C(=O)O)nc2ccc(N3CCC4(CC3)CC(Cc3c(-c5ccccc5C(F)(F)F)noc3C3CC3)C4)cc12 [Example 97]
